Test results from paper PMC6199744, “Development of Chemical Proteomics for the Folateome and Analysis of the Kinetoplastid Folateome” (ACS Infectious Diseases, 2018).
Like-named read-outs stand apart in the source and are kept apart here.

Experiments:
Format in all cases: binding
[1] = target: T1, HeLa cell extract proteins (Homo sapiens, UniProt O75533)
T1 construct: endogenous in cells; host or cells: HeLa cell extract

[2] = target: T2, HeLa cell extract proteins (Homo sapiens, UniProt P13727)
T2 construct: endogenous in cells; host or cells: HeLa cell extract
T2 sequence (P13727 106-222): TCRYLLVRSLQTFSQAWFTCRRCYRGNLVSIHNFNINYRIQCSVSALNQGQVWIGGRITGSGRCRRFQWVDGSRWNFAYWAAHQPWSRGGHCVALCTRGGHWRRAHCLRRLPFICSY

[3] = target: T3, HeLa cell extract proteins (Homo sapiens, UniProt P42330)
T3 construct: endogenous in cells; host or cells: HeLa cell extract
T3 sequence (P42330 1-323): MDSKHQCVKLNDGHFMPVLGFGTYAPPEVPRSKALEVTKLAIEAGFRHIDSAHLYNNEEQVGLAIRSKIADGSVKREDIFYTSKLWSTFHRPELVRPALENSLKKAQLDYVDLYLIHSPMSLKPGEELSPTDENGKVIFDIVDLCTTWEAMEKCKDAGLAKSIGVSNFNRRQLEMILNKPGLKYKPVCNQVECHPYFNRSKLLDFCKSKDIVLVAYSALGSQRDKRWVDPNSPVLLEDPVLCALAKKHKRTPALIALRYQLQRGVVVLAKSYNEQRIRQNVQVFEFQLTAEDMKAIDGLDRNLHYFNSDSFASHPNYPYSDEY

[4] = target: T4, HeLa cell extract proteins (Homo sapiens, UniProt Q9BWD1)
T4 construct: endogenous in cells; host or cells: HeLa cell extract
T4 sequence (Q9BWD1 whole entry): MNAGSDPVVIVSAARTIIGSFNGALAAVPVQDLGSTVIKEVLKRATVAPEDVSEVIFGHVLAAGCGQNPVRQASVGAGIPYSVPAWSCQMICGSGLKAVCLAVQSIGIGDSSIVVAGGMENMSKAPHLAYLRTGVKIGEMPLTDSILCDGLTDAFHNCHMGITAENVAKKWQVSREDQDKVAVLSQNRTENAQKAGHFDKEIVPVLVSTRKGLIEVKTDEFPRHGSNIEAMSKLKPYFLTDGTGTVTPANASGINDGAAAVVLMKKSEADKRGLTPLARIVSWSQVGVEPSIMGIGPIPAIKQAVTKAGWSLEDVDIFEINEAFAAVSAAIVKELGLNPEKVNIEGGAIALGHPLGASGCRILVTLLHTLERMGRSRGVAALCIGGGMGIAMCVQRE

[5] = target: T5, HeLa cell extract proteins (Homo sapiens, UniProt Q06323); settings: HeLa; protein PSME1
T5 construct: endogenous in cells; host or cells: HeLa cell extract
T5 sequence (Q06323 whole entry): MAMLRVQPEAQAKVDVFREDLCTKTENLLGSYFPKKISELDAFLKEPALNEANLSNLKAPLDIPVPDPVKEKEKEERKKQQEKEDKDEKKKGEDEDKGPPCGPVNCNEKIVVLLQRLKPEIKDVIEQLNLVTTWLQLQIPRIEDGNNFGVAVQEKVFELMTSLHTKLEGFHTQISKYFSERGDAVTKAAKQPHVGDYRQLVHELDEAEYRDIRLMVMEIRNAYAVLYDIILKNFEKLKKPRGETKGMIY

[6] = target: T6, HeLa cell extract proteins (Homo sapiens, UniProt Q13510); settings: HeLa; protein ASAH1
T6 construct: endogenous in cells; host or cells: HeLa cell extract
T6 sequence (Q13510 22-395): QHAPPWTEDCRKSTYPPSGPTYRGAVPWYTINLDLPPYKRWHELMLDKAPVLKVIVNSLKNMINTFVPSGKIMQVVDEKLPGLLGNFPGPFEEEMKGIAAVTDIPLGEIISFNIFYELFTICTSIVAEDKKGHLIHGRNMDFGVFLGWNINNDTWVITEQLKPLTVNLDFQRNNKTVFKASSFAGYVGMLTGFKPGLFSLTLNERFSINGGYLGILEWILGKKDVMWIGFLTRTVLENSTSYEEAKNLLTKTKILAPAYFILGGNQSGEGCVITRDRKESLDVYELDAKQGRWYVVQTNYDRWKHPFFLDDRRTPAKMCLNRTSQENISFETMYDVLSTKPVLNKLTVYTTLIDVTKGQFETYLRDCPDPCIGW

[7] = target: T7, HeLa cell extract proteins (Homo sapiens, UniProt Q5BJD5); settings: captured protein TMEM41B; HeLa
T7 construct: endogenous in cells; host or cells: HeLa cell extract
T7 sequence (Q5BJD5 1-291): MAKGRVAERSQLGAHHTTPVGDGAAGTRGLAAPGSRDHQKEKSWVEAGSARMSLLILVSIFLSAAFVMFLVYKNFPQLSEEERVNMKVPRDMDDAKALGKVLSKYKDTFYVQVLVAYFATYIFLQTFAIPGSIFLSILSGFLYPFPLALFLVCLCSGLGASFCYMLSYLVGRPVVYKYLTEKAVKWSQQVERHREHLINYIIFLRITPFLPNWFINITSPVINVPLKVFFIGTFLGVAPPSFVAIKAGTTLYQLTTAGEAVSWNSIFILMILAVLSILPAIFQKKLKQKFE

[8] = target: T8, HeLa cell extract proteins (Homo sapiens, UniProt Q9NX61); settings: captured protein TMEM161A; HeLa
T8 construct: endogenous in cells; host or cells: HeLa cell extract
T8 sequence (Q9NX61 29-479): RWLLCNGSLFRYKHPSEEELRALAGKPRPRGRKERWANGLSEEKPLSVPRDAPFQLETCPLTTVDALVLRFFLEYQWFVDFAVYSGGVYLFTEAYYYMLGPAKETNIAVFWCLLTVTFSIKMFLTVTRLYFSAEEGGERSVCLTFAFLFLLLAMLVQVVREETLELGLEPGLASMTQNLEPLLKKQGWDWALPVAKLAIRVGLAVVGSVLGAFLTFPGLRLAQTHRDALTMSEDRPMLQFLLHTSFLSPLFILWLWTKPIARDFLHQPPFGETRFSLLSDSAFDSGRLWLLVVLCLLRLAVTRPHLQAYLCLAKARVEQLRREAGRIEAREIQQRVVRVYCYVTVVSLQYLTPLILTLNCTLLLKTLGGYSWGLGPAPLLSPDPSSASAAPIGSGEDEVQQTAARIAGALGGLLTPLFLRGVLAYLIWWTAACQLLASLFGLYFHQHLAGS

[9] = target: T9, HeLa cell extract proteins (Homo sapiens, UniProt Q9Y5M8); settings: captured protein SRPRB; HeLa
T9 construct: endogenous in cells; host or cells: HeLa cell extract
T9 sequence (Q9Y5M8 1-271): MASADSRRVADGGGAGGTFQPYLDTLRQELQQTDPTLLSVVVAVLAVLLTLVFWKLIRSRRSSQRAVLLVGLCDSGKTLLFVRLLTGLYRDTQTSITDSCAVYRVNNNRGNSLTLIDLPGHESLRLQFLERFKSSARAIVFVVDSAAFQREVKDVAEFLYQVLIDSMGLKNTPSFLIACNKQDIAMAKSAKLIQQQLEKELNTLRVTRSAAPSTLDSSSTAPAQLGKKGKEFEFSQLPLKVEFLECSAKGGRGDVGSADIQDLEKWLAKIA

T1 sequence (O75533 whole entry): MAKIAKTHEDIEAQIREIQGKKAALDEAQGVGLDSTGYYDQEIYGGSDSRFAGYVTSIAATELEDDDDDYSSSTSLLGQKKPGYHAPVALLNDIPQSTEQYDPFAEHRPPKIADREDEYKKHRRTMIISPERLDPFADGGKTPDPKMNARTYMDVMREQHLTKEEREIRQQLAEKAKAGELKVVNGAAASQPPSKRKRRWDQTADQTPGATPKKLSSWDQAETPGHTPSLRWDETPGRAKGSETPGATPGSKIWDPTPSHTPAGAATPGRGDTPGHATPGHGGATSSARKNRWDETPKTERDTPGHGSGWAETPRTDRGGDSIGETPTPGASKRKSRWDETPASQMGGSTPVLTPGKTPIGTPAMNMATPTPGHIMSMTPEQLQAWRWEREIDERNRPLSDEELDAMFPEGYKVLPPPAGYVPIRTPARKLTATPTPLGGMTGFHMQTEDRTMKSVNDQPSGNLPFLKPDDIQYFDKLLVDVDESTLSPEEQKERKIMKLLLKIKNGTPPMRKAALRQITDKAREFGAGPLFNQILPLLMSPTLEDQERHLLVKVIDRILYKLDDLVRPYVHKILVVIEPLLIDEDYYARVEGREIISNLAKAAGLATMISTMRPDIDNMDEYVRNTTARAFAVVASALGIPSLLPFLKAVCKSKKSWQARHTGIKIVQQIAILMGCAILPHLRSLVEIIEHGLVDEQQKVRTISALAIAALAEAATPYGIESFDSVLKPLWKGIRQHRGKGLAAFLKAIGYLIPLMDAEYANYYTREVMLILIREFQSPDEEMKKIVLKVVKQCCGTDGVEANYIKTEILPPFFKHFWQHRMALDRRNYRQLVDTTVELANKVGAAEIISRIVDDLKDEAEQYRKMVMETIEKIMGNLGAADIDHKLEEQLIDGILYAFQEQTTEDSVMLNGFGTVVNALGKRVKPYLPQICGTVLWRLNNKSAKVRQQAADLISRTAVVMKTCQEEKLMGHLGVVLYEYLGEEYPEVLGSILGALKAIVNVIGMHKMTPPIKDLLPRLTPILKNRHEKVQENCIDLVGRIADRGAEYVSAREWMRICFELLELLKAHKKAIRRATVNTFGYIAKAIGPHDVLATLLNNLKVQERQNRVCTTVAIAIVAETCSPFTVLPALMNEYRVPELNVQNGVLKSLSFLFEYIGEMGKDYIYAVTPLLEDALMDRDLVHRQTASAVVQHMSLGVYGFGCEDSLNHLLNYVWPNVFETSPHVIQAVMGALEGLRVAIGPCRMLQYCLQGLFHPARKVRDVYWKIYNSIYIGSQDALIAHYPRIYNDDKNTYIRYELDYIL

| SMILES | fold changes relative to vehicle control ([1]; HeLa, protein SF3B1) | fold changes relative to vehicle control ([2]; HeLa, captured protein PRG2) | fold changes relative to vehicle control ([3]; HeLa, protein AKR1C3) | fold changes relative to vehicle control ([4]; HeLa, protein ACAT2) | fold changes relative to vehicle control [5] | fold changes relative to vehicle control [6] | fold changes relative to vehicle control [7] | fold changes relative to vehicle control [8] | fold changes relative to vehicle control [9] | other results |
| --- | --- | --- | --- | --- | --- | --- | --- | --- | --- | --- |
| Nc1nc2c(c(=O)[nH]1)N(C=O)C(CNc1ccc(C(=O)N[C@@H](CCC(=O)O)C(=O)O)cc1)CN2 (stereo partly shown) [LEU, leucovorin] | 1.02 | 0.92 | 0.98 | 1.06 |  |  |  |  |  |  |
| Nc1nc2[nH]cc(CCc3ccc(C(=O)N[C@@H](CCC(=O)O)C(=O)O)cc3)c2c(=O)[nH]1 [PTX, pemetrexed] |  |  |  |  |  |  |  |  |  | fold changes relative to vehicle control [1]: 1.1; fold changes relative to vehicle control [2]: 0.86; fold changes relative to vehicle control [3]: 1.13; fold changes relative to vehicle control [4]: 0.82 |
| CCCCCCOc1ccc(Cc2cnc(N)nc2N)cc1 [compound 1] |  |  |  |  | 0.97 | 0.97 | 1.09 | 0.76 | 1.12 |  |
| CCCCCCOc1cccc(Cc2cnc(N)nc2N)c1 [compound 2] |  |  |  |  | 1.35 | 0.71 | 1.09 | 1.02 | 1.08 |  |
| Nc1nc2cccc(-c3ccccc3)c2n1Cc1ccc(Cl)c(Cl)c1 [compound 3] |  |  |  |  | 1.04 | 0.89 | 1.08 | 0.94 | 0.91 |  |
| NCCOCCOCC(=O)Nc1nc2ncc(CNc3ccc(C(=O)NC(CCC(=O)O)C(=O)O)cc3)nc2c(=O)[nH]1 (stereo not shown) [compound 6] | 1.16 | 0.77 | 1.3 | 1.17 |  |  |  |  |  |  |
| NCCCNc1ccc(C(=O)NC(CCC(=O)O)C(=O)O)cc1 (stereo not shown) [compound 7] | 1.07 | 1.01 | 0.99 | 1.12 |  |  |  |  |  |  |
